Source: US20200000793A1, “TOPICAL FORMULATIONS OF TARGETED NITROXIDE AGENTS” (University of Pittsburgh - Of the Commonwealth System of …, priority 2011, published 2020)

Tests used:
[1] = tested on: human skin; experiment: Living human skin samples, 60 GY irradiation followed by topical JP4-039: oxidative skin damage
Experimental: Oxidative skin damage directly correlates with epidermal thickening, an increase in apoptotic (dying) cells (measured by TUNEL and Caspase release) and an increase in 8-oxoguanine positive cells. Further, oxidative damage is a result of free radical formation that correlates with increases in carbonylated proteins and reduced levels of GSH. […] Living human skin samples were divided and groups of skin samples were treated with either 60 GY irradiation (60 GY), 60 GY followed by topical JP4-039(60 GY+JP4-039), 60 GY followed by formulation without JP4-039(60 GY+Formulation), or were cultured without irradiation (0 GY CONTROL). Photographs in FIG. 10 a) are representative H&E sections (400×). […] In FIG. 10 c) sections were stained with antibody against 8-oxoguanine followed by DAB and counterstained with hemotoxalin. Positive cells have brown nuclei (400×). Epidermal thickness FIG. 10 (d) was determined by photographing 5 consecutive H&E sections (400×) and measuring the length of the epidermis at 5 sites within each photograph. The percentage of TUNEL positive cells FIG. 10 (e) and 8 oxoguanine positive cells FIG. 10 (f) was determined by counting all epidermal cells (positive and negative) in five consecutive 400× sections beginning with the site of maximal apoptosis. Carbonyl Protein FIG. 10 (g), Caspase 3/8 FIG. 10 (h) and GSH FIG. 10 (i) levels were determined in skin homogenates and were normalized by mg protein. Carbonyl protein samples were performed in triplicate from pooled homogenates. All graphical data were converted to % increase from control and are presented as mean+sem. Statistical significance was determined by ANOVA followed by a Bonferroni post test with significance set at p<0.05.

[2] = tested on: oxidative stress induced skin damage; experiment: Mice irradiated with 35 GY, JP4-039 at 0.5, 24 and 48 hours: barrier function (TEWL), fibrosis, thickening; format: in vivo
Experimental: Clinically relevant disruption of skin barrier function results in increased water loss from the skin surface. This can be measured non-invasively by the Transepidermal Water Loss (TEWL) assay. Increasing TEWL values directly correlate with damage to the skin's barrier function.
Groups of mice were irradiated with 35 GY to induce oxidative stress and then treated with JP4-039 or formulation alone 0.5, 24 and 48 hours after exposure. Skin was evaluated 21 days after initial treatment. Damage to skin barrier function was determined by TEWL. Results are reported as % recovery from 35 GY damage defined as (((radiated average−test sample value+0 GY average)/(treated average)*100) (FIG. 18a).
Fibrosis was evaluated histologically by evaluating the extent of collagen infiltration in the skin sections in (FIG. 18b) (100×). Dermal thickness is indicated by the arrows and collagen fibers were identified by Masson's Trichrome staining (blue). Representative H&E stained sections are provided in (FIG. 18c) with arrows showing epidermal thickness (200×). Dermal (FIG. 18d 100×) and epidermal (FIG. 18e) thickness (200×) was quantified at 5 sites within 4 representative histologic images for each mouse using NIH Image J Software. Statistical significance was determined by ANOVA followed by a Bonferroni post test set at p<0.05.

[3] = tested on: irradiation induced skin damage; experiment: Mouse leg skin irradiated with 6 MeV electron beam, topical F14 emulsion after irradiation: skin damage; format: in vivo, C57BL/6NHsd mice
Experimental: Mouse flank was shaved and depilated 24 hrs. prior to irradiation with 35 GY using a 6 MeV electron beam.
JP4-039 was topically applied in a liposome formulation (F14-JP4-039 Emulsion: JP4-039 (2 mg/ml) was emulsified in sesame seed oil (100 mg/ml), and soy phosphatidyl choline (50 mg/ml) by sonication) 30 minutes after irradiation and daily for the next 3 days. Mice were photographed and skin damage scored by clinical criteria. Leg contracture was measured by comparing maximal extension between control and irradiated legs. Histological characterization of cellular infiltrates and collagen levels was performed.
JP4-039 was topically applied in a the above-described liposome formulation 30 minutes after irradiation. Skin samples taken at 4 hours. Analyzed for apoptosis via caspase 3 and TUNEL. Antioxidant functions evaluated by changes in GSH levels. All quantitative data presented as means±sem and significance determined by ANOVA followed by a Bonferoni post test set at p<0.05.
Materials/Methods: The right legs of C57BL/6NHsd mice were shaved and treated with Nair to remove the fur. Twenty four hours later the right legs were irradiated to doses of 30 or 35 Gy using 6 MeV electron beam, bolused to bring the surface dose to 100%. At 30 minutes after irradiation, 24, 48 and 72 hours, F14 emulsion only or F14-JP4-039 (100 μg in 50 μl) was applied to the skin. Photos were taken for visual evidence of skin damage and leg contracture was measured as a functional evaluation of tissue damage. Histological characterization of skin thickening, cellular infiltrates and collagen evaluation was also performed. To evaluate the mechanism of radiation damage mitigation, skin samples were assayed at 4 hours after irradiation for markers of apoptosis and oxidative stress. Results: Skin damage was scored on day 21 after irradiation. […] Assessment of Irradiation Damage: Skin damage was measured using visual evidence seen from photographs of the skin and measuring leg contracture. […]

[4] = In vivo topical delivery in lipid-based formulation, amount retained in tape-stripped skin; conditions: 2 mg/ml in saline with surfactants and egg PC, liposome size 200 nm; tape-stripped skin of topically treated mice
Experimental: For these studies, 2 mg/ml JP4-039 was formulated in saline with a mixture of surfactants with egg PC by sonication to a liposome size of 200 nm. Harvested, tape-stripped (to remove superficial drug) skin from topically treated mice was processed as described above to determine the amount of JP4-039 retained in the skin. We found cutaneous retention to be in the range of 11.7+/−3.1 pmole/mg, a level compatible with therapeutic efficacy.

[5] = living human skin explants, topical
[6] = F14 emulsion applied at 30 min after irradiation

CC(C)C[C@@H](/C=C/CC(=O)NC1CC(C)(C)N([O])C(C)(C)C1)NC(=O)OC(C)(C)C [JP4-039, (S,E)-5-(tert-Butoxycarbonylamino)-7-methyloct-3-enoic Acid-TEMPO]
depletion of the antioxidant GSH [1, 5]: decreasing | epidermal thickening associated with oxidative skin damage [1, 5]: reduction | formation of protein carbonyls [1, 5]: reduction | radiation induced cellular apoptosis [1, 5]: reduction | oxidative damage of human skin ([1]; living human skin samples, 60 GY followed by topical JP4-039): protects human skin from oxidative damage | fibrosis associated changes (epidermal and dermal thickening, collagen deposition) ([2]; day 21): prevents/mitigates | radiation induced TEWL increases ([2]; day 21, p=0.011): significantly reversed | caspase 3 activity [3, 6]: decreased | thickening of the skin [3, 6]: decreased | antioxidant function in the skin ([3]; topical 30 minutes after 35 GY, skin taken at 4 hours, GSH levels): potent antioxidant function | cutaneous retention [4]: 11.7 ± 3.1 pmol/mg
